Laboratory results published in patent US11420968B2 (priority 2018, dated 2022).

Tests used:
Bcl-2 [1] = biological target: T1, Bcl-2 (Homo sapiens (Human), UniProt P10415); assay: biochemical; settings: Biochemical activity (IC50, nM) BCL-2
Bcl-2 [2] = biological target: T1, Bcl-2

| Compound | IC50 (Bcl-2 [1]) [nM] | folds less potent than its analog in biochemical assay (Bcl-2 [2]) [folds] | folds less potent than its analog in cellular assay (RS4;11 cells) [folds] |
| --- | --- | --- | --- |
| O=C(NS(=O)(=O)c1ccc(NCC2CCOCC2)c([N+](=O)[O-])c1)c1ccc(N2CCC3(CCC(N4CCC[C@H]4c4ccccc4C4CC4)CC3)C2)cc1Oc1cnc2[nH]ccc2c1 (stereo partly drawn) [Example F42, (S)-2-((1H-pyrrolo[2,3-b]pyridin-5-yl)oxy)-4-(8-(2-(2-cyclopropylphenyl)pyrrolidin-1-yl)-2-azaspiro[4.5]decan-2-yl)-N-((3-nitro-4-(((tetrahydro-2H-pyran-4-yl)methyl)amino)phenyl)sulfonyl)benzamide] | 44 |  |  |
| O=C(NS(=O)(=O)c1ccc(NCC2CCOCC2)c([N+](=O)[O-])c1)c1ccc(N2CC3(CN(CC4CCCN4c4ccccc4C4CC4)C3)C2)cc1Oc1cnc2[nH]ccc2c1 (stereo not drawn) [Example F114, 2-((1H-pyrrolo[2,3-b]pyridin-5-yl)oxy)-4-(6-((1-(2-cyclopropylphenyl)pyrrolidin-2-yl)methyl)-2,6-diazaspiro[3.3]heptan-2-yl)-N-((3-nitro-4-(((tetrahydro-2H-pyran-4-yl)methyl)amino)phenyl)sulfonyl)benzamide] |  | 28 to 80 | 15 to 22 |
